From patent US20120276545A1, “METHOD FOR USING DIVISION ARRESTED CELLS IN SCREENING ASSAYS” (LIFE TECHNOLOGIES CORPORATION, priority 2002, published 2012)

Assays:
parental NIH3T3 cells = experiment: Ca2+ mobilization control in untransfected parental NIH3T3 cells; assay type: cell-based; conditions: parental NIH3T3 cells not transfected; data not shown
Source text: (§1) In order to measure and to analyze Ca^2+ mobilization, a commercially available cell sorter was used. Excitation was set at 360 nm, and emissions were set at both 400 (+/−15 nm) and 500 (+/−20)nm. The emissions were monitored simultaneously, and the emission ratio at 400 nm/500 nm was used to report the intracellular rise of Ca^2+ concentration. Untreated cells were used to set a baseline ratio.

5HT2c = molecular target: T1, 5HT2c (Rattus norvegicus, UniProt P08909); experiment: Ca2+ mobilization by FACS (Indo-1) in NIH3T3-POP cells expressing 5HT2c; assay type: cell-based; conditions: Mesulergine (10 μM) pretreated division arrested cells, 10 μM 5HT
T1 sequence (P08909 33-460): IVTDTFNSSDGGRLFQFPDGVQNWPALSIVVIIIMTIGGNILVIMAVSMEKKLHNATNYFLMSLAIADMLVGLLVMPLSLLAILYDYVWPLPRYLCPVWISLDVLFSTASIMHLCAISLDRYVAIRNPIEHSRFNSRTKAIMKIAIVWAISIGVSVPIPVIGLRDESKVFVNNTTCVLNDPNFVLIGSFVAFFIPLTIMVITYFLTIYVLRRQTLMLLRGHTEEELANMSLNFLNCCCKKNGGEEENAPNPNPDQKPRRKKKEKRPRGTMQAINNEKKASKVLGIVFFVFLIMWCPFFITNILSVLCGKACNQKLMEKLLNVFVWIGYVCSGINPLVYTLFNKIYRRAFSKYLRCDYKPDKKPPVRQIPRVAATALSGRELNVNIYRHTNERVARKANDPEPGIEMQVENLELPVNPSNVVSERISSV
Source text: as §1

| cells responding to serotonin in Ca++ mobilization (5HT2c) [%] | SMILES | fluorescence change when treated with serotonin (parental NIH3T3 cells) |
| --- | --- | --- |
|  | NCCc1c[nH]c2ccc(O)cc12 [serotonin] | no fluorescence change |
| 0.1 | CN1C[C@@H](NS(=O)(=O)N(C)C)C[C@@H]2c3cccc4c3c(cn4C)C[C@H]21 [Mesulergine] |  |
